Laboratory results taken from patent US20230212549A1, “COMPOUNDS COMPRISING A […] LIGAND AND USE THEREOF” (priority 2021, published 2023).
Numbered stars: 1 amine (or outer) side, 2 acyl side, 3 side chain; on linkers, the order of the positions; unused ones are H or OH. Bridge positions count the residues as written; N and C are the ends. Square brackets hold non-standard residues; d marks the D form. Peptide text beside a SMILES is read from it. * marks the point of attachment. X13 = O=C(O)CN1CCN(CC(=O)O)CCN(CC(=O)N2CCN(Cc3cc(C[*:1])cc(C[*:2])c3)CC2)CCN(CC(=O)O)CC1; X12 = O=C(O)CN1CCN(CC(=O)O)CCN(CC(=O)NCCCOCCOCCOCCCN*)CCN(CC(=O)O)CC1; mXylylene = c1cc(C[*:1])cc(C[*:2])c1; Suc = O=C(CCC(=O)[*:2])[*:1]; Nle = CCCC[C@H](N)C(=O)O; Hexanoyl = CCCCCC(=O)*; Mpa = O=C(O)CCS

Legend:
[1] = Plasma stability assay, mouse plasma; format: in vitro ADME; conditions: 37° C.
[2] = molecular target: T1, FAP-expressing human WI-38 fibroblasts (Homo sapiens, UniProt Q12884); assay: Competitive FACS binding assay
T1 construct: FAP-expressing human WI-38 fibroblasts (ECACC) were cultured in EMEM; host or cells: WI-38 human fibroblasts
T1 sequence (Q12884 whole entry): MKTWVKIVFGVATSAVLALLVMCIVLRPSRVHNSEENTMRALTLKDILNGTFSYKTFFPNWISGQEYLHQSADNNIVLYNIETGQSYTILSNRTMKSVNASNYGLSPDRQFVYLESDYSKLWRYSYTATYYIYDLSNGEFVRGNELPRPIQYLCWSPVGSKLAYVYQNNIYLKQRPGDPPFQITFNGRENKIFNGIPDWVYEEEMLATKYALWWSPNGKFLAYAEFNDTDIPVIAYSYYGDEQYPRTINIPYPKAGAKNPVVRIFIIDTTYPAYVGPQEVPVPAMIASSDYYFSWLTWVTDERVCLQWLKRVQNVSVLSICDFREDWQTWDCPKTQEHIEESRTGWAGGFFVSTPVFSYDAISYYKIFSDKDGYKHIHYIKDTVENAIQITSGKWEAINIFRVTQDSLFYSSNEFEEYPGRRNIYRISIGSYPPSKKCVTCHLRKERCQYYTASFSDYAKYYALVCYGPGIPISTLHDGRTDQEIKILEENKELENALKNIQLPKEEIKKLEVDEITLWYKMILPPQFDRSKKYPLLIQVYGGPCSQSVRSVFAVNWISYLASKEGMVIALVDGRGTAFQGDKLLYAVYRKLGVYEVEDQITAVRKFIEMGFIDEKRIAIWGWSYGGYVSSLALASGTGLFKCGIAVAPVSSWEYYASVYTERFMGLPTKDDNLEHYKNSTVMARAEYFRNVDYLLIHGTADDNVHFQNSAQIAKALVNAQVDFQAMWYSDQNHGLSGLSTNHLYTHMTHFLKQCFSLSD
Protocol: Cells were analyzed in an Attune NxT flow cytometer. […] […].
Cells were analyzed in an Attune NxT flow cytometer. […]

Human recombinant FAP [3] = molecular target: T2, Human recombinant FAP (Homo sapiens, UniProt Q12884); assay: Surface plasmon resonance (Biacore) assay; format: binding
T2 sequence (Q12884 whole entry): as above

recombinant human PREP = molecular target: T3, recombinant human PREP (Homo sapiens, UniProt P48147); assay: PREP protease activity assay; format: biochemical
T3 construct: purchased R&D systems 4308-SE
T3 sequence (P48147 1-710): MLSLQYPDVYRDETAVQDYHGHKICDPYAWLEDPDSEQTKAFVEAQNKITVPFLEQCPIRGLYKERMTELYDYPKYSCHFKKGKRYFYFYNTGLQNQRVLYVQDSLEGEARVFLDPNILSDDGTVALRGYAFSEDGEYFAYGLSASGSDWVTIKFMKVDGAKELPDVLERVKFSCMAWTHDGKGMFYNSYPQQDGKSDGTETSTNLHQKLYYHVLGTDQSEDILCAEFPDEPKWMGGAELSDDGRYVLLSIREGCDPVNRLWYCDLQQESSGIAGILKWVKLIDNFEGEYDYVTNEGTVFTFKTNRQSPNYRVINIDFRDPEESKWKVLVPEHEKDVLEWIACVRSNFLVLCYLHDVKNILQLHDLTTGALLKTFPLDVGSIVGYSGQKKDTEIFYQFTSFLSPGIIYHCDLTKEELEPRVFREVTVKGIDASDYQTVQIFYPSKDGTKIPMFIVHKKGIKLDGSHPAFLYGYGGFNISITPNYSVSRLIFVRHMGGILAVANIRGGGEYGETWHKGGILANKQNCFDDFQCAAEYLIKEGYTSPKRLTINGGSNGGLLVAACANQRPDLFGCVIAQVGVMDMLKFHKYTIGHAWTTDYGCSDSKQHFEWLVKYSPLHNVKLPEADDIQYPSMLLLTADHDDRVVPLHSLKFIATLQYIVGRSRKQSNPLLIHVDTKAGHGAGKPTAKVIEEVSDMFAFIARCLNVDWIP

Human recombinant FAP [4] = molecular target: T2, Human recombinant FAP; assay: FRET-based FAP protease activity assay; format: biochemical; design: purchased R&D systems 3715-SE
Recombinant human DPP4 = molecular target: T4, Recombinant human DPP4 (Homo sapiens, UniProt P27487); assay: DPP4 protease activity assay; format: biochemical
T4 construct: purchased R&D systems 9168-SE
T4 sequence (P27487 whole entry): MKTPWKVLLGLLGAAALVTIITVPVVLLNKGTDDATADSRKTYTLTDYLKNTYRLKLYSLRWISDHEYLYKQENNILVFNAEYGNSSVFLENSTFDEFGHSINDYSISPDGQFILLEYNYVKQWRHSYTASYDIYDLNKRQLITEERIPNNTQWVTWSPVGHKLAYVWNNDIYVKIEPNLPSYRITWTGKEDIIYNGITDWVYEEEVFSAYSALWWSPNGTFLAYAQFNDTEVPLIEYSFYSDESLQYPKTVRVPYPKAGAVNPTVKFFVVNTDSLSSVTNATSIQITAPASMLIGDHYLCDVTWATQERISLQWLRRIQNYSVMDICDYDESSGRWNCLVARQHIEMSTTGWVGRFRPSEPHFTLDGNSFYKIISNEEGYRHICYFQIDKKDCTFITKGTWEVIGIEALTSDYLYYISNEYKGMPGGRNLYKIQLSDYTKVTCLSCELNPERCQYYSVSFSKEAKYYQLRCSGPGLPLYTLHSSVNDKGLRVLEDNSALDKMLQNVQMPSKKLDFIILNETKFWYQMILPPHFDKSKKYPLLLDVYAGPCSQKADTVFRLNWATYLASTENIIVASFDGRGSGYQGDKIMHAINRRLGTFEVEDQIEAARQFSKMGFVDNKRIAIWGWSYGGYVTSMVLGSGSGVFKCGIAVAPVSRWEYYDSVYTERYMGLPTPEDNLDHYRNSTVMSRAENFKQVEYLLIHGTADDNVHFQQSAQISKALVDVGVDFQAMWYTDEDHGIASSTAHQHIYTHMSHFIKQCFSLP

[5] = 24 h incubation, 37° C.
[6] = molecular target: Ca2+ channel (L, dihydropyridine site) (Rattus norvegicus, UniProt P22002); assay: biochemical; conditions: read-out: % Inhibition of Specific Binding
Chain of Ca2+ channel (L, dihydropyridine site) (P22002 whole entry): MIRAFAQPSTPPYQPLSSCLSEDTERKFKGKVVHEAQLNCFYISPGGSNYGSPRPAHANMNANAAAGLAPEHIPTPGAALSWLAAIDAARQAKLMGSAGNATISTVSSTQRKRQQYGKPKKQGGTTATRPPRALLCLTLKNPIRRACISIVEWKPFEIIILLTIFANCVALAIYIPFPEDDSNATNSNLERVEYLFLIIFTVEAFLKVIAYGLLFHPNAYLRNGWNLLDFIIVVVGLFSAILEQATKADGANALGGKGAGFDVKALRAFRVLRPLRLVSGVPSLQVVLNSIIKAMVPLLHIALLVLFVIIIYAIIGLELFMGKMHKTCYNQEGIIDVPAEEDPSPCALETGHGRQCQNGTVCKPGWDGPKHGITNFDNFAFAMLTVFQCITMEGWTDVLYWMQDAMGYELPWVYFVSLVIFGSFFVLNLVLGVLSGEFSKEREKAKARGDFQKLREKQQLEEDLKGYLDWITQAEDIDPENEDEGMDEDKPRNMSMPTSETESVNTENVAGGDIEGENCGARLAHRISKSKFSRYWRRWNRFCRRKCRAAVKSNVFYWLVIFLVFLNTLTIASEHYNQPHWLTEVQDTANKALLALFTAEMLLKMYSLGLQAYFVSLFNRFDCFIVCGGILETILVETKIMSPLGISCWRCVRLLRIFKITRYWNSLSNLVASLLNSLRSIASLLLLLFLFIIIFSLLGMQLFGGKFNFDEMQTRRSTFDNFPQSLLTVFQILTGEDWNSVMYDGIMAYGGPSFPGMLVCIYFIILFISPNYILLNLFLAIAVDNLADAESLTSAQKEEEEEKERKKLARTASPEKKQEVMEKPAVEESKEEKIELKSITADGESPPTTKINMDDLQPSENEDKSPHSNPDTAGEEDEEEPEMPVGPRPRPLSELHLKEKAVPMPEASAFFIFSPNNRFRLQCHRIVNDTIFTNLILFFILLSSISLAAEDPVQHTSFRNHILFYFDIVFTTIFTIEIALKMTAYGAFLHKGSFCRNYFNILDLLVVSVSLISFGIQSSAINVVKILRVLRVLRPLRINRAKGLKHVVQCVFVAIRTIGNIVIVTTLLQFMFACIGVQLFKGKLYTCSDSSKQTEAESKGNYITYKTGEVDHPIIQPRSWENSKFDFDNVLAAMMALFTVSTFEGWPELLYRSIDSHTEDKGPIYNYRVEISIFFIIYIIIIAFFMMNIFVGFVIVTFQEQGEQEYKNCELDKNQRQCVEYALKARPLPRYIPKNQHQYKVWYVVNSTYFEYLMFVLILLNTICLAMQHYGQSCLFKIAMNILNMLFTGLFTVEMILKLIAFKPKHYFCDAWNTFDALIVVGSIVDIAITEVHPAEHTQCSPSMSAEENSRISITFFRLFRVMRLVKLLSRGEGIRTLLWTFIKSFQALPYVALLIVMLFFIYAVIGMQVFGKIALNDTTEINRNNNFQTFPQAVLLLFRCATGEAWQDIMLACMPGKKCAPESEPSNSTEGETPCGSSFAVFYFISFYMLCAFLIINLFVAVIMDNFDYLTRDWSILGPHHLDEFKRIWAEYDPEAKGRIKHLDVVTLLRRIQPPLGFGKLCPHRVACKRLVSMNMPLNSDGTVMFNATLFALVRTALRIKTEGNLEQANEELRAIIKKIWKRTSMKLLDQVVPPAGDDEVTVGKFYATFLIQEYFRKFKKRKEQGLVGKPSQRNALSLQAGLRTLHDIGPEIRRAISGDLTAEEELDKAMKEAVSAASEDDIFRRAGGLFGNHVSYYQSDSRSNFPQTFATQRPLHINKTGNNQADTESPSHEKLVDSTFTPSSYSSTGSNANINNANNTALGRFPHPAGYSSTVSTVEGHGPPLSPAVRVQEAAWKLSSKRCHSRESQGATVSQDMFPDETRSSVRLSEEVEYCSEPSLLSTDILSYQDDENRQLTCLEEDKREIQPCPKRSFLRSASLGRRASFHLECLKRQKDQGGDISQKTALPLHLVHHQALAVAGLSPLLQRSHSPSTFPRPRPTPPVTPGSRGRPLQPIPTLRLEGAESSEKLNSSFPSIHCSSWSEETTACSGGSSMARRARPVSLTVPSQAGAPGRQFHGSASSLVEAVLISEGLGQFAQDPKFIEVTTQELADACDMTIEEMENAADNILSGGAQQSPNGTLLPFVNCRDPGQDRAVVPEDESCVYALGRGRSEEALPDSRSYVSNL

[7] = 24 h incubation, 37° C.; remark: listed apart in the source
[8] = Pharmacokinetic study in rats (plasma, NCA); conditions: rat, intravenous; for Vd: rat plasma
[9] = Pharmacokinetic study in mice (plasma, NCA); conditions: mouse, intravenous; for Vd: mouse plasma
Sarc4809 PDX tumors = assay: Efficacy study, sarcoma Sarc4809 PDX model; conditions: throughout the study, 30 or 60 MBq
HEK-FAP tumors = assay: Efficacy study, HEK-FAP tumor model; conditions: throughout the study, 30 or 60 MBq
[10] = pIC50 Category (Activity), FRET-based FAP protease activity assay, recombinant human FAP, 37° C.

CCCC[C@H](NC(=O)CCC(=O)NCCCOCCOCCOCCCNC(=O)CN1CCN(CC(=O)O)CCN(CC(=O)O)CCN(CC(=O)O)CC1)C(=O)N[C@H]1CSCc2cccc(c2)CSC[C@@H](C(=O)N[C@@H](CC(=O)O)C(=O)N[C@@H](Cc2c[nH]cn2)C(=O)N[C@@H](Cc2ccccc2)C(=O)N[C@@H](CCCNC(=N)N)C(=O)N[C@@H](CC(=O)O)C(N)=O)NC(=O)[C@H](Cc2ccccc2)NC(=O)[C@H](CCC(=O)O)NC(=O)[C@H]([C@@H](C)O)NC(=O)[C@@H]2CCCN2C(=O)[C@@H]2CCCN2C1=O [3BP-3168, DOTA-Ttds-Nle-[Cys(3MeBn)-Pro-Pro-Thr-Glu-Phe-Cys]-Asp-His-Phe-Arg-Asp-NH2] ({X12-Suc}-[Nle]CPPTEFCDHFRD-NH2; linker 2-8 via mXylylene)
remaining at 4 h, 9.8 µM ([1]; mouse, plasma, 4 h incubation, read-out: % intact compound remaining after incubation, Mouse plasma): 100%
IC50 [2]: < 10 nM
Kd (Human recombinant FAP [3]): < 10 nM
IC50 (recombinant human PREP): > 1000 nM
IC50 (Human recombinant FAP [4]; pIC50 (highest activity categories), text on Table 9 categories (FACS binding and FAP activity assay)): < 10 nM
IC50 (Human recombinant FAP [4]; [10]): < 10 nM
IC50 (Recombinant human DPP4): > 1000 nM

CCCC[C@H](NC(=O)CCC(=O)NCCCOCCOCCOCCCNC(=O)CN1CCN(CC(=O)O)CCN(CC(=O)O)CCN(CC(=O)O)CC1)C(=O)N[C@H]1CSCc2cccc(c2)CSC[C@@H](C(=O)N[C@@H](CC(=O)O)C(N)=O)NC(=O)[C@H](Cc2ccccc2)NC(=O)[C@H](CCC(=O)O)NC(=O)[C@H]([C@@H](C)O)NC(=O)[C@@H]2CCCN2C(=O)[C@@H]2CCCN2C1=O [3BP-3320, DOTA-Ttds-Nle-[Cys(3MeBn)-Pro-Pro-Thr-Glu-Phe-Cys]-Asp-NH2] ({X12-Suc}-[Nle]CPPTEFCD-NH2; linker 2-8 via mXylylene)
% intact compound remaining after incubation, Mouse plasma ([1]; 4 h incubation): 75%
IC50 [2]: 10 to 79.4 nM
Kd (Human recombinant FAP [3]): < 10 nM
IC50 (recombinant human PREP): > 1000 nM
IC50 (Human recombinant FAP [4]; [10]): < 10 nM
IC50 (Recombinant human DPP4): > 1000 nM

CCCC[C@H](NC(=O)CCC(=O)NCCCOCCOCCOCCCNC(=O)CN1CCN(CC(=O)O)CCN(CC(=O)O)CCN(CC(=O)O)CC1)C(=O)N[C@H]1CSCc2cccc(c2)CSC[C@@H](C(=O)NCCC(=O)O)NC(=O)[C@H](Cc2ccccc2)NC(=O)[C@H](CCC(N)=O)NC(=O)[C@H]([C@@H](C)O)NC(=O)[C@@H]2CCCN2C(=O)[C@@H]2CCCN2C1=O [3BP-3398, DOTA-Ttds-Nle-[Cys(3MeBn)-Pro-Pro-Thr-Gln-Phe-Cys]-Bal-OH]
% intact compound remaining after incubation, Human plasma [5]: 99% (24 h)

CCCCCC(=O)N[C@H]1CSCc2cc(cc(CN3CCN(C(=O)CN4CCN(CC(=O)O)CCN(CC(=O)O)CCN(CC(=O)O)CC4)CC3)c2)CSC[C@@H](C(=O)N[C@@H](CC(=O)O)C(N)=O)NC(=O)[C@H](Cc2ccccc2)NC(=O)[C@H](CCC(N)=O)NC(=O)[C@H]([C@@H](C)O)NC(=O)[C@@H]2CCCN2C(=O)[C@@H]2CCCN2C1=O [3BP-3407, Hex-[Cys(tMeBn(DOTA-PP))-Pro-Pro-Thr-Gln-Phe-Cys]-Asp-NH2] (Hexanoyl-CPPTQFCD-NH2; linker 1-7 via X13)
inhibition at 10 µM [6]: 42%
% intact compound remaining after incubation, Human plasma [5]: 100% (24 h)
% intact compound remaining after incubation, Rat plasma [7]: 100% (24 h)

C[C@@H](O)[C@@H]1NC(=O)[C@@H]2CCCN2C(=O)[C@@H]2CCCN2C(=O)CCSCc2cccc(c2)CSC[C@@H](C(=O)N[C@@H](CC(=O)O)C(N)=O)NC(=O)[C@H](Cc2ccccc2)NC(=O)[C@H](CCC(N)=O)NC1=O [3BP-3419, [3MeBn-Spa-Pro-Pro-Thr-Gln-Phe-Cys]-Asp-NH2] ([Mpa]PPTQFCD-NH2; linker 1-7 via mXylylene)
IC50 [2]: 100 to 794 nM
IC50 (recombinant human PREP): > 1000 nM
IC50 (Human recombinant FAP [4]; [10]): 100 to 794 nM
IC50 (Recombinant human DPP4): > 1000 nM

CCCCCC(=O)N[C@H]1CSCc2cc(CSCCNC(=O)CN3CCN(CC(=O)O)CCN(CC(=O)O)CCN(CC(=O)O)CC3)cc(c2)CSC[C@@H](C(=O)O)NC(=O)[C@H](Cc2ccccc2)NC(=O)[C@H](CCC(N)=O)NC(=O)[C@H]([C@@H](C)O)NC(=O)[C@@H]2CCCN2C(=O)[C@@H]2CCCN2C1=O [3BP-3554, Hex-[Cys(tMeBn(DOTA-AET))-Pro-Pro-Thr-Gln-Phe-Cys]-OH]
inhibition at 10 µM [6]: 54%
% intact compound remaining after incubation, Human plasma [5]: 100% (24 h)
% intact compound remaining after incubation, Rat plasma [7]: 100% (24 h)

CCCCCC(=O)N[C@H]1CSCc2cc(cc(CN3CCN(C(=O)CN4CCN(CC(=O)O)CCN(CC(=O)O)CCN(CC(=O)O)CC4)CC3)c2)CSC[C@@H](C(=O)N[C@@H](CC(=O)O)C(N)=O)NC(=O)[C@H](Cc2ccccc2)NC(=O)[C@H](CCC(N)=O)NC(=O)[C@H]([C@@H](C)O)NC(=O)[C@@H]2CCCN2C(=O)[C@@H]2CCCN2C1=O [3BP-3590, Hex-[Cys(tMeBn(InDOTA-PP))-Pro-Pro-Thr-Gln-Phe-Cys]-Asp-NH2] (Hexanoyl-CPPTQFCD-NH2; linker 1-7 via X13)
remaining at 24 h, 9.8 µM ([1]; mouse, plasma, 24 h incubation, read-out: % intact compound remaining after incubation, Mouse plasma): 100%
% intact compound remaining after incubation, Human plasma [5]: 94% (24 h)
% intact compound remaining after incubation, Rat plasma [7]: 100% (24 h)

CCCCCC(=O)N[C@H]1CSCc2cc(CSCCNC(=O)CN3CCN(CC(=O)O)CCN(CC(=O)O)CCN(CC(=O)O)CC3)cc(c2)CSC[C@@H](C(=O)O)NC(=O)[C@H](Cc2ccccc2)NC(=O)[C@H](CCC(N)=O)NC(=O)[C@H]([C@@H](C)O)NC(=O)[C@@H]2CCCN2C(=O)[C@@H]2CCCN2C1=O [3BP-3623, Hex-[Cys(tMeBn(InDOTA-AET))-Pro-Pro-Thr-Gln-Phe-Cys]-OH]
% intact compound remaining after incubation, Human plasma [5]: 100% (24 h)
% intact compound remaining after incubation, Rat plasma [7]: 100% (24 h)
AUC(0-inf) ([8]; 40 nmol/kg): 0.074 µM·h
C0 ([8]; 40 nmol/kg): 127 nM
clearance ([8]; 40 nmol/kg): 9.02 mL/min/kg
half-life ([8]; 40 nmol/kg): 45 min
Vd ([8]; 40 nmol/kg, Vss, 40 nmol/kg): 0.48 L/kg
Vd ([8]; 40 nmol/kg, Vz): 0.58 L/kg
AUC(0-inf) ([8]; 400 nmol/kg): 0.738 µM·h
C0 ([8]; 400 nmol/kg): 1410 nM
clearance ([8]; 400 nmol/kg): 9.03 mL/min/kg
half-life ([8]; 400 nmol/kg): 71 min
Vd ([8]; 400 nmol/kg, Vz): 0.93 L/kg
AUC(0-inf) ([9]; 4 nmol/kg): 0.0077 µM·h
C0 ([9]; 4 nmol/kg): 17.6 nM
clearance ([9]; 4 nmol/kg): 8.63 mL/min/kg
half-life ([9]; 4 nmol/kg): 35 min
Vd ([9]; 4 nmol/kg, Vss, 4 nmol/kg): 0.36 L/kg
Vd ([9]; 4 nmol/kg, Vz): 0.44 L/kg
AUC(0-inf) ([9]; 40 nmol/kg): 0.055 µM·h
C0 ([9]; 40 nmol/kg): 228 nM
clearance ([9]; 40 nmol/kg): 12 mL/min/kg
half-life ([9]; 40 nmol/kg): 30 min
Vd ([9]; 40 nmol/kg, Vss, 40 nmol/kg): 0.31 L/kg
Vd ([9]; 40 nmol/kg, Vz): 0.53 L/kg
AUC(0-inf) ([9]; 400 nmol/kg): 0.532 µM·h
C0 ([9]; 400 nmol/kg): 2130 nM
clearance ([9]; 400 nmol/kg): 12.5 mL/min/kg
half-life ([9]; 400 nmol/kg): 35 min
Vd ([9]; 400 nmol/kg, Vss, 400 nmol/kg): 0.2 L/kg
Vd ([9]; 400 nmol/kg, Vz): 0.64 L/kg

CCCCCC(=O)N[C@H]1CSCc2cc(CSCCNC(=O)CN3CCN(CC(=O)O)CCN(CC(=O)O)CCN(CC(=O)O)CC3)cc(c2)CSC[C@@H](C(=O)O)NC(=O)[C@H](Cc2ccccc2)NC(=O)[C@H](CCC(N)=O)NC(=O)[C@H]([C@@H](C)O)NC(=O)[C@@H]2CCCN2C(=O)[C@@H]2CCCN2C1=O [3BP-3624, Hex-[Cys(tMeBn(LuDOTA-AET))-Pro-Pro-Thr-Gln-Phe-Cys]-OH]
% intact compound remaining after incubation, Human plasma [5]: 100% (24 h)
% intact compound remaining after incubation, Rat plasma [7]: 100% (24 h)

CCCCCC(=O)N[C@H]1CSCc2cc(CSCCNC(=O)CN3CCN(CC(=O)O)CCN(CC(=O)O)CCN(CC(=O)O)CC3)cc(c2)CSC[C@@H](C(=O)O)NC(=O)[C@H](Cc2ccccc2)NC(=O)[C@H](CCC(N)=O)NC(=O)[C@H]([C@@H](C)O)NC(=O)[C@@H]2CCCN2C(=O)[C@@H]2CCCN2C1=O [^177Lu-3BP-3554, metal not drawn]
body weight loss (BWL) (Sarc4809 PDX tumors): No treatment-related body weight loss
body weight loss (HEK-FAP tumors): No treatment-related body weight loss
